Measured values as given in ChEMBL document CHEMBL5058641, “Data for DCP probe TP-050” (2022).
pEC50, pIC50: −log10 of the molar value.

Legend:
[1] = biological target: Glutamate receptor ionotropic, NMDA 2B (Homo sapiens, UniProt Q05586+Q13224); assay: GluN2B-containing NMDA receptor (Ca2+ influx) assay (EC50)
[2] = biological target: Glutamate receptor ionotropic, NMDA 2D (Homo sapiens, UniProt O15399+Q05586); assay: GluN2D-containing NMDA receptor (Ca2+ influx) assay (EC50)
[3] = biological target: Neuronal acetylcholine receptor; alpha4/beta2 (Homo sapiens, UniProt P17787+P43681); assay: nAChR(a4/b2) Eurofins SafetyScreen (Other); design: species or system Blocker
[4] = biological target: Voltage-dependent L-type calcium channel subunit alpha-1C (Homo sapiens, UniProt Q13936); assay: CAV1.2 Eurofins SafetyScreen (Other); design: species or system Blocker
[5] = biological target: Gamma-aminobutyric acid receptor subunit alpha-1 (Homo sapiens, UniProt P14867); assay: GABAA Eurofins SafetyScreen (Other); design: species or system Blocker
[6] = biological target: Voltage-gated inwardly rectifying potassium channel KCNH2 (Homo sapiens, UniProt Q12809); assay: hERG Eurofins SafetyScreen (Other); design: species or system Blocker
[7] = biological target: Potassium voltage-gated channel subfamily KQT member 1 (Homo sapiens, UniProt P51787); assay: KvLQT1/minK Eurofins SafetyScreen (Other); design: species or system Blocker
Acetylcholinesterase = Acetylcholinesterase (Homo sapiens, UniProt P22303); assay: AChE Eurofins SafetyScreen (Other); design: species or system Inhibitor
[8] = biological target: Prostaglandin G/H synthase 1 (Homo sapiens, UniProt P23219); assay: COX1 Eurofins SafetyScreen (Other); design: species or system Inhibitor
[9] = biological target: Amine oxidase [flavin-containing] A (Homo sapiens, UniProt P21397); assay: MAOA Eurofins SafetyScreen (Other); design: species or system Inhibitor
[10] = biological target: 3',5'-cyclic-AMP phosphodiesterase 4D (Homo sapiens, UniProt Q08499); assay: PDE4D2 Eurofins SafetyScreen (Other); design: species or system Inhibitor
[11] = biological target: Sodium-dependent dopamine transporter (Homo sapiens, UniProt Q01959); assay: DAT Eurofins SafetyScreen (Other); design: species or system Blocker
[12] = biological target: Sodium-dependent serotonin transporter (Homo sapiens, UniProt P31645); assay: SERT Eurofins SafetyScreen (Other); design: species or system Blocker
[13] = biological target: T1, Beta-2 adrenergic receptor (Homo sapiens, UniProt P07550); assay: ADRB2 Eurofins SafetyScan (Receptor)
Target sequence in this assay (P07550 whole entry): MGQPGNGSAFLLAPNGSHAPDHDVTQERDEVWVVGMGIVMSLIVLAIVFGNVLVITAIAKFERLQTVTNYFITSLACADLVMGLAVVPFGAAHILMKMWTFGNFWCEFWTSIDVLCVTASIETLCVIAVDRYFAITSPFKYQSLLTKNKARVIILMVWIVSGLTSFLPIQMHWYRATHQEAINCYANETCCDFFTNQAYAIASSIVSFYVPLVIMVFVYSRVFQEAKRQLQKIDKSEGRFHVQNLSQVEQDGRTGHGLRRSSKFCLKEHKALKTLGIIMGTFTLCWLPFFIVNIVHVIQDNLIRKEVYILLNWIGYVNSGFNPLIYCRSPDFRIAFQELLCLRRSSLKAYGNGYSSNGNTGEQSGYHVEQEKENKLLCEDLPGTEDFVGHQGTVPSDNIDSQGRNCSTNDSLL

[14] = biological target: Cholecystokinin receptor type A (Homo sapiens, UniProt P32238); assay: CCKAR Eurofins SafetyScan (Receptor)
[15] = biological target: Muscarinic acetylcholine receptor M1 (Homo sapiens, UniProt P11229); assay: CHRM1 Eurofins SafetyScan (Receptor)
Adenosine receptor A2a = Adenosine receptor A2a (Homo sapiens, UniProt P29274); assay: ADORA2A Eurofins SafetyScan (Receptor)
[16] = biological target: Alpha-2A adrenergic receptor (Homo sapiens, UniProt P08913); assay: ADRA2A Eurofins SafetyScan (Receptor)
[17] = biological target: Muscarinic acetylcholine receptor M3 (Homo sapiens, UniProt P20309); assay: CHRM3 Eurofins SafetyScan (Receptor)
Cannabinoid receptor 1 = Cannabinoid receptor 1 (Homo sapiens, UniProt P21554); assay: CNR1 Eurofins SafetyScan (Receptor)
D(1A) dopamine receptor = D(1A) dopamine receptor (Homo sapiens, UniProt P21728); assay: DRD1 Eurofins SafetyScan (Receptor)
Endothelin-1 receptor = Endothelin-1 receptor (Homo sapiens, UniProt P25101); assay: EDNRA Eurofins SafetyScan (Receptor)
Histamine H1 receptor [18] = biological target: T2, Histamine H1 receptor (Homo sapiens, UniProt P35367); assay: HRH1 Eurofins SafetyScan (Receptor)
Histamine H2 receptor [19] = biological target: T3, Histamine H2 receptor (Homo sapiens, UniProt P25021); assay: HRH2 Eurofins SafetyScan (Receptor)
[20] = biological target: Delta-type opioid receptor (Homo sapiens, UniProt P41143); assay: OPRD1 Eurofins SafetyScan (Receptor)
Mu-type opioid receptor [21] = biological target: T4, Mu-type opioid receptor (Homo sapiens, UniProt P35372); assay: OPRM1 Eurofins SafetyScan (Receptor)
[22] = biological target: 5-hydroxytryptamine receptor 1D (Homo sapiens, UniProt P28221); settings: Compound concentration 10.0 uM
[23] = biological target: 5-hydroxytryptamine receptor 1E (Homo sapiens) (UniProt P28566); settings: Compound concentration 10.0 uM
[24] = biological target: 5-hydroxytryptamine receptor 2B (Homo sapiens, UniProt P41595); settings: Compound concentration 10.0 uM
D(2) dopamine receptor = D(2) dopamine receptor (Homo sapiens, UniProt P14416); settings: Compound concentration 10.0 uM
[25] = biological target: D(4) dopamine receptor (Homo sapiens) (UniProt P21917); settings: Compound concentration 10.0 uM
[26] = biological target: Sodium-dependent noradrenaline transporter (Homo sapiens, UniProt P23975); settings: Compound concentration 10.0 uM
Mu-type opioid receptor [27] = biological target: T4, Mu-type opioid receptor; settings: Compound concentration 10.0 uM
Histamine H1 receptor [28] = biological target: T2, Histamine H1 receptor; settings: Compound concentration 10.0 uM
Histamine H2 receptor [29] = biological target: T3, Histamine H2 receptor; settings: Compound concentration 10.0 uM
[30] = biological target: Histamine H4 receptor (Homo sapiens) (UniProt Q9H3N8); settings: Compound concentration 10.0 uM
[31] = biological target: Alpha-1B adrenergic receptor (Homo sapiens) (UniProt P35368); settings: Compound concentration 10.0 uM
[32] = biological target: Alpha-2B adrenergic receptor (Homo sapiens) (UniProt P18089); settings: Compound concentration 10.0 uM
[33] = biological target: Alpha-2C adrenergic receptor (Homo sapiens) (UniProt P18825); settings: Compound concentration 10.0 uM
[34] = biological target: T1, Beta-2 adrenergic receptor; settings: Compound concentration 10.0 uM
[35] = biological target: Muscarinic acetylcholine receptor M1 (Homo sapiens) (UniProt P11229); settings: Compound concentration 10.0 uM
[36] = biological target: Muscarinic acetylcholine receptor M2 (Homo sapiens) (UniProt P08172); settings: Compound concentration 10.0 uM
[37] = biological target: Muscarinic acetylcholine receptor M4 (Homo sapiens) (UniProt P08173); settings: Compound concentration 10.0 uM
[38] = biological target: Muscarinic acetylcholine receptor M5 (Homo sapiens) (UniProt P08912); settings: Compound concentration 10.0 uM
[39] = biological target: Beta-3 adrenergic receptor (Homo sapiens) (UniProt P13945); settings: Compound concentration 10.0 uM
Rattus norvegicus = species: Rattus norvegicus; settings: Compound concentration 10.0 uM

T2 sequence (P35367 whole entry): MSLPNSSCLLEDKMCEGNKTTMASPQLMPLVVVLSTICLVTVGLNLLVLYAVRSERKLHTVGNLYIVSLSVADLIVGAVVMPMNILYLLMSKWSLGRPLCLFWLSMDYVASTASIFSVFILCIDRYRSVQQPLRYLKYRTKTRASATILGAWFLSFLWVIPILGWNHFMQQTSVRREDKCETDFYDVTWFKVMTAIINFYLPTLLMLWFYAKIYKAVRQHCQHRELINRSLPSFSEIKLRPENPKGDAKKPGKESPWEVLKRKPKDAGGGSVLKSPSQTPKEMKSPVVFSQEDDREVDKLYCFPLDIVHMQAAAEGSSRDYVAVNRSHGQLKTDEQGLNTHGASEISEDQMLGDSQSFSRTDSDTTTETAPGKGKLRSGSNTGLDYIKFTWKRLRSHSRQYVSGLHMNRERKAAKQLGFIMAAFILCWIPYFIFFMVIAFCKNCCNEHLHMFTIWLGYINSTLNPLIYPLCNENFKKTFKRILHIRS
T4 sequence (P35372 whole entry): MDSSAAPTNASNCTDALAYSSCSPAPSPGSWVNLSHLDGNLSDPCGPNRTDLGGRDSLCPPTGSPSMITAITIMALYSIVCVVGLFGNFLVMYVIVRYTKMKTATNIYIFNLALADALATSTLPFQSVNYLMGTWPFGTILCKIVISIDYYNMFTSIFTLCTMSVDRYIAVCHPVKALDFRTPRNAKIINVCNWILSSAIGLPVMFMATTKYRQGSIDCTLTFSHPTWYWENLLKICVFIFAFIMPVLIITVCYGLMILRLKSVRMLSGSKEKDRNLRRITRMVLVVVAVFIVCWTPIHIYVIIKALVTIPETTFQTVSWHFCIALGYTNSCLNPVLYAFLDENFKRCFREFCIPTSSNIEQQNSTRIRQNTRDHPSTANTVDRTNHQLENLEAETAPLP
T3 sequence (P25021 whole entry): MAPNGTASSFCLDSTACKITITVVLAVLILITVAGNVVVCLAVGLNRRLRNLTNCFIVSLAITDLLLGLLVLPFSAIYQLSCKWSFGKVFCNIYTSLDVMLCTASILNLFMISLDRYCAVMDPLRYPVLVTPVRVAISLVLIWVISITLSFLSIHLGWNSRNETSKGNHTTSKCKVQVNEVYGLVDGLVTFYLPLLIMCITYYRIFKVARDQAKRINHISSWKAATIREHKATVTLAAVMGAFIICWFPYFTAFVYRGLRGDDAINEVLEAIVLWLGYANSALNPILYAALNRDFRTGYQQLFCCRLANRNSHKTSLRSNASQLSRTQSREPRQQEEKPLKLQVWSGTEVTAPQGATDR
Adenosine receptor A2a, sequence (P29274 whole entry): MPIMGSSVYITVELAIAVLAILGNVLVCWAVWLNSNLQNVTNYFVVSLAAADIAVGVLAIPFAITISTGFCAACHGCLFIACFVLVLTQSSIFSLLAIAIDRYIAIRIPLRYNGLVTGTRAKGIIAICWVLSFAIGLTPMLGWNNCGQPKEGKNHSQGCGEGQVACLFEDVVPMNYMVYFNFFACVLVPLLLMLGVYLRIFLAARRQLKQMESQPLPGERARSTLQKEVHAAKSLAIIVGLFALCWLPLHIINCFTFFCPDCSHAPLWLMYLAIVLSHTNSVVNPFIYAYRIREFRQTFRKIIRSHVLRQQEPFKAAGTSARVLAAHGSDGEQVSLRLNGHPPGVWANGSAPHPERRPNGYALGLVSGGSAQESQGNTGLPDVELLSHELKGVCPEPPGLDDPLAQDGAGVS
Cholecystokinin receptor type A, sequence (P32238 whole entry): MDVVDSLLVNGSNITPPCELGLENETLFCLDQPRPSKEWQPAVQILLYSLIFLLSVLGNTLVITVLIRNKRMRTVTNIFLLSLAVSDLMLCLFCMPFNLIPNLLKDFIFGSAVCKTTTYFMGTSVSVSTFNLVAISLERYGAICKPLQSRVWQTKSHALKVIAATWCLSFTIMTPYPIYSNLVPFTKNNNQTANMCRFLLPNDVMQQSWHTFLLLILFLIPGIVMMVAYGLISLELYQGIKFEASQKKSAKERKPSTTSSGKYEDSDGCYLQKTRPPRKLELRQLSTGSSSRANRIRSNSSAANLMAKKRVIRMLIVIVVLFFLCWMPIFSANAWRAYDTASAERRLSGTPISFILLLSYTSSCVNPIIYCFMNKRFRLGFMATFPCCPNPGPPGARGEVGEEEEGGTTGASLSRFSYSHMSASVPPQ
Cannabinoid receptor 1, sequence (P21554 whole entry): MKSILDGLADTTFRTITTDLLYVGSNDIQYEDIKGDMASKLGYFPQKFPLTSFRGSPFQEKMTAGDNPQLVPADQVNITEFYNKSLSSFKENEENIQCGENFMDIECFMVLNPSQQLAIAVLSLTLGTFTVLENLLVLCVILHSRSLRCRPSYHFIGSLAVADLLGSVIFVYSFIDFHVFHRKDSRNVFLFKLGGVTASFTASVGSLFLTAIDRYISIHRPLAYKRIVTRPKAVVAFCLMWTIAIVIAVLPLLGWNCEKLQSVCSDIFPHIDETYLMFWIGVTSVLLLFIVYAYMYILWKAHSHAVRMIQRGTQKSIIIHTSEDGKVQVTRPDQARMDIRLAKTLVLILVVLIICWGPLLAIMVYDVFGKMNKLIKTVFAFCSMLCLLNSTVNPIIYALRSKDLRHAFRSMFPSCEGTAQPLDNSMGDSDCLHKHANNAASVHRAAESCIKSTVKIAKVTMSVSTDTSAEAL
Muscarinic acetylcholine receptor M1, sequence (P11229 whole entry): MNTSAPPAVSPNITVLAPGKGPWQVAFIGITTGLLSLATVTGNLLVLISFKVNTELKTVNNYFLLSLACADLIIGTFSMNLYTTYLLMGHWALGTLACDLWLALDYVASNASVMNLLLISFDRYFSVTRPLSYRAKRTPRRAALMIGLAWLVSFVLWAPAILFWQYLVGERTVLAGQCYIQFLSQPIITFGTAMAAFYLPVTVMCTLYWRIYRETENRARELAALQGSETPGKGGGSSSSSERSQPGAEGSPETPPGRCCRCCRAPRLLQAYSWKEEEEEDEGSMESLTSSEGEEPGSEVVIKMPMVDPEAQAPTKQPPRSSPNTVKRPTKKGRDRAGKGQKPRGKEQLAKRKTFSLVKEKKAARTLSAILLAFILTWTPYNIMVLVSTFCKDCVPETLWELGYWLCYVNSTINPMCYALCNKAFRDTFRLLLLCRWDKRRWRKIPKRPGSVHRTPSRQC
D(1A) dopamine receptor, sequence (P21728 whole entry): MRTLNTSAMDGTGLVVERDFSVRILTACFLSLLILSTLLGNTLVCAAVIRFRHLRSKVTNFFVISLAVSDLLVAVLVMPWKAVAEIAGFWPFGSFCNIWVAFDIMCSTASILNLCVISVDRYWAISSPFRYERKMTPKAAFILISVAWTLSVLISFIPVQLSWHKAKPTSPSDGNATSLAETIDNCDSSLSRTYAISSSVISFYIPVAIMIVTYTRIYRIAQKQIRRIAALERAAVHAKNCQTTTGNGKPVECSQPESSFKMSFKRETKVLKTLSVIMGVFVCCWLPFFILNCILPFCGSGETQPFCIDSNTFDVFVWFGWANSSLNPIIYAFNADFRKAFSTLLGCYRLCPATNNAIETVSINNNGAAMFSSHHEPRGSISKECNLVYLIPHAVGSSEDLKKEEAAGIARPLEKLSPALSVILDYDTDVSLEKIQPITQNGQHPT
Muscarinic acetylcholine receptor M3, sequence (P20309 whole entry): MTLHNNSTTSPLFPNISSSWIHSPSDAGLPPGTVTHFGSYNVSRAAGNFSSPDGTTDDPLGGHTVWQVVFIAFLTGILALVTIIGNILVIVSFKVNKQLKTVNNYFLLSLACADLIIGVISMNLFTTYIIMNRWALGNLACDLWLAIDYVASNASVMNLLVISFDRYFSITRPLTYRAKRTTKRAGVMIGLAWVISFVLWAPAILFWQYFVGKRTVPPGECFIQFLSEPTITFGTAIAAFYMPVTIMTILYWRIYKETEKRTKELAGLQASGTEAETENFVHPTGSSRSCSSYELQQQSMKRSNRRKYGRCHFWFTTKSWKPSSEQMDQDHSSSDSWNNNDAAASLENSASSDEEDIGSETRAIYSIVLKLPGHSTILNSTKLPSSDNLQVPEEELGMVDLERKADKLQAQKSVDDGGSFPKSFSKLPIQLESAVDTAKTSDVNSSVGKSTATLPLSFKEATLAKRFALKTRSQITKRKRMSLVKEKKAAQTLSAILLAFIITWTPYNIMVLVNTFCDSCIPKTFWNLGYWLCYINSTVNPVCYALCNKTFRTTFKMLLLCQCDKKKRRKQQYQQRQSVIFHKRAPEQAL
Delta-type opioid receptor, sequence (P41143 whole entry): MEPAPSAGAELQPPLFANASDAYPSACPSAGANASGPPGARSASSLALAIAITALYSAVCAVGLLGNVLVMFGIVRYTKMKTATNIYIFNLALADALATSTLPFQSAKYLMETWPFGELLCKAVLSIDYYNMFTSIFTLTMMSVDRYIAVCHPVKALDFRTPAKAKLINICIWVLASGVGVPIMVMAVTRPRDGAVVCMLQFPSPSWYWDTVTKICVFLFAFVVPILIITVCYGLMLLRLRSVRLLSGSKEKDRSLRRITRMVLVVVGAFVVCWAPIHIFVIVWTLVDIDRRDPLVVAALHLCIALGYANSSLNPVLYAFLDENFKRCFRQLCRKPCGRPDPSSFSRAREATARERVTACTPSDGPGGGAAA
Muscarinic acetylcholine receptor M1 (Homo sapiens), sequence (P11229 whole entry): as the sequence (P11229 whole entry) above

Question: Which results are given for Cc1cn([C@H](C)CC#N)c(=O)c2cc(Cn3nc(C(F)F)cc3Cl)nn12?
Answer: EC50 [1]: > 30 µM (not active); EC50 [2]: > 9.6 µM (not active); pIC50 [3]: < 5.00; pIC50 [4]: < 5.00; pIC50 [5]: < 5.00; pIC50 [6]: < 5.00; pIC50 [7]: < 5.00; pIC50 (Acetylcholinesterase): < 5.00; pIC50 [8]: < 5.00; pIC50 [9]: < 5.00; pIC50 [10]: < 5.00; pIC50 [11]: < 5.00; pIC50 [12]: < 5.00; pEC50 [13]: < 5.00; pIC50 [13]: < 5.00; pEC50 [14]: < 5.00; pIC50 [14]: < 5.00; pEC50 [15]: < 5.00; pIC50 [15]: < 5.00; pEC50 (Adenosine receptor A2a): < 5.00; pIC50 (Adenosine receptor A2a): < 5.00; pEC50 [16]: < 5.00; pIC50 [16]: < 5.00; pEC50 [17]: < 5.00; pIC50 [17]: < 5.00; pEC50 (Cannabinoid receptor 1): < 5.00; pIC50 (Cannabinoid receptor 1): < 5.00; pEC50 (D(1A) dopamine receptor): < 5.00; pIC50 (D(1A) dopamine receptor): < 5.00; pEC50 (Endothelin-1 receptor): < 5.00; pIC50 (Endothelin-1 receptor): < 5.00; pEC50 (Histamine H1 receptor [18]): < 5.00; pIC50 (Histamine H1 receptor [18]): < 5.00; pEC50 (Histamine H2 receptor [19]): < 5.00; pIC50 (Histamine H2 receptor [19]): < 5.00; pEC50 [20]: < 5.00; pIC50 [20]: < 5.00; pEC50 (Mu-type opioid receptor [21]): < 5.00; pIC50 (Mu-type opioid receptor [21]): < 5.00; inhibition [22]: 90.8%; inhibition [23]: 6.65%; inhibition [24]: 42.7%; inhibition (D(2) dopamine receptor): 9.18%; inhibition [25]: 48.5%; inhibition [26]: -4%; inhibition (Mu-type opioid receptor [27]): 0.85%; inhibition (Histamine H1 receptor [28]): 31.7%; inhibition (Histamine H2 receptor [29]): 3.64%; inhibition [30]: 25.2%; inhibition [31]: -6.73%; inhibition [32]: 6.16%; inhibition [33]: -1.11%; inhibition [34]: -1.62%; inhibition [35]: 12.5%; inhibition [36]: 4.32%; inhibition [37]: 4.14%; inhibition [38]: 17.9%; inhibition [39]: -3.8%; inhibition (Rattus norvegicus): 83.2%
